# Data taken from PubChem BioAssay AID1963985 (Molecular Pharmacology Branch, DTP, NCI, 2024).
# Tested on: 252836-082-R-J2-PDC tumor spheroids, viability
# Assay: Anticancer human tumor 252836-082-R-J2-PDC patient-derived head and neck squamous cell carcinoma cell line growth inhibition [PI3K]
# Conditions: spheroids with HUVEC and MSC; for IC50: curve of first compound; for viability, T/C: stronger effect = lower value
# How it was run: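 Viability of mixed-cell spheroids was determined after exposure to pairwise combinations, one partner being inavolisib, alpelisib, duvelisib or copanlisib. Highest tested concentration matched clinical Cmax where known and 10 microM where not, descending in half-log steps.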
# [1] = second compound 0.0316 µM, first compound 0.0316 µM
# [2] = second compound 0.0316 µM, first compound 0.1 µM
# [3] = second compound 0.0316 µM, first compound 0.316 µM
# [4] = second compound 0.0316 µM, first compound 1 µM
# [5] = second compound 0.0316 µM, first compound 3.16 µM
# [6] = second compound 0.0316 µM, first compound 10 µM
# [7] = second compound 0.1 µM, first compound 0.0316 µM
# [8] = second compound 0.1 µM, first compound 0.1 µM
# [9] = second compound 0.1 µM, first compound 0.316 µM
# [10] = second compound 0.1 µM, first compound 1 µM
# [11] = second compound 0.1 µM, first compound 3.16 µM
# [12] = second compound 0.1 µM, first compound 10 µM
# [13] = second compound 0.316 µM, first compound 0.0316 µM
# [14] = second compound 0.316 µM, first compound 0.1 µM
# [15] = second compound 0.316 µM, first compound 0.316 µM
# [16] = second compound 0.316 µM, first compound 1 µM
# [17] = second compound 0.316 µM, first compound 3.16 µM
# [18] = second compound 0.316 µM, first compound 10 µM
# [19] = second compound 1 µM, first compound 0.0316 µM
# [20] = second compound 1 µM, first compound 0.1 µM
# [21] = second compound 1 µM, first compound 0.316 µM
# [22] = second compound 1 µM, first compound 1 µM
# [23] = second compound 1 µM, first compound 3.16 µM
# [24] = second compound 1 µM, first compound 10 µM
# [25] = second compound 3.16 µM, first compound 0.0316 µM
# [26] = second compound 3.16 µM, first compound 0.1 µM
# [27] = second compound 3.16 µM, first compound 0.316 µM
# [28] = second compound 3.16 µM, first compound 1 µM
# [29] = second compound 3.16 µM, first compound 3.16 µM
# [30] = second compound 3.16 µM, first compound 10 µM
# [31] = second compound 10 µM, first compound 0.0316 µM
# [32] = second compound 10 µM, first compound 0.1 µM
# [33] = second compound 10 µM, first compound 0.316 µM
# [34] = second compound 10 µM, first compound 1 µM
# [35] = second compound 10 µM, first compound 3.16 µM
# [36] = second compound 10 µM, first compound 10 µM
# 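Note: spheroids exposed to agents for seven days before readout.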
# 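Throughout, for viability, T/C: percent of vehicle DMSO control viability so 100% = untreated growth.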
smiles,measurement,setting,value
CC(C)NCC(C(=O)N1CCN(c2ncnc3c2C(C)CC3O)CC1)c1ccc(Cl)cc1 (stereo unspecified) + CC(Nc1ccc2c(c1)OCCn1cc(N3C(=O)OCC3C(F)F)nc1-2)C(N)=O,IC50,second compound 0.00316 µM,710 nM
same,IC50,second compound 0.01 µM,749 nM
same,IC50,second compound 0.0316 µM,631 nM
same,IC50,second compound 0.1 µM,234 nM
same,IC50,second compound 0.316 µM,173 nM
same,IC50,second compound 1 µM,< 31.6 nM
same,"viability, T/C","second compound 0.00316 µM, first compound 0.0316 µM",100%
same,"viability, T/C","second compound 0.00316 µM, first compound 0.1 µM",83%
same,"viability, T/C","second compound 0.00316 µM, first compound 0.316 µM",66.9%
same,"viability, T/C","second compound 0.00316 µM, first compound 1 µM",41.4%
same,"viability, T/C","second compound 0.00316 µM, first compound 3.16 µM",29.8%
same,"viability, T/C","second compound 0.00316 µM, first compound 10 µM",18.3%
same,"viability, T/C","second compound 0.01 µM, first compound 0.0316 µM",83.1%
same,"viability, T/C","second compound 0.01 µM, first compound 0.1 µM",88.3%
same,"viability, T/C","second compound 0.01 µM, first compound 0.316 µM",69.6%
same,"viability, T/C","second compound 0.01 µM, first compound 1 µM",42.5%
same,"viability, T/C","second compound 0.01 µM, first compound 3.16 µM",28.5%
same,"viability, T/C","second compound 0.01 µM, first compound 10 µM",20.1%
same,"viability, T/C",[1],87.4%
same,"viability, T/C",[2],82.3%
same,"viability, T/C",[3],67%
same,"viability, T/C",[4],36.9%
same,"viability, T/C",[5],29.3%
same,"viability, T/C",[6],17.9%
same,"viability, T/C",[7],74.8%
same,"viability, T/C",[8],56.4%
same,"viability, T/C",[9],47.9%
same,"viability, T/C",[10],35.8%
same,"viability, T/C",[11],23.8%
same,"viability, T/C",[12],15.7%
same,"viability, T/C",[13],54.9%
same,"viability, T/C",[14],49.6%
same,"viability, T/C",[15],49.4%
same,"viability, T/C",[16],37.3%
same,"viability, T/C",[17],25.4%
same,"viability, T/C",[18],16.6%
same,"viability, T/C",[19],43%
same,"viability, T/C",[20],42.2%
same,"viability, T/C",[21],37.3%
same,"viability, T/C",[22],29.2%
same,"viability, T/C",[23],22.8%
same,"viability, T/C",[24],14.7%
C[C@@H](NC(=O)c1ncnc(N)c1Cl)c1ncc(C(=O)Nc2cc(C(F)(F)F)c(Cl)cn2)s1 + Cc1nc(NC(=O)N2CCCC2C(N)=O)sc1-c1ccnc(C(C)(C)C(F)(F)F)c1,IC50,second compound 0.0316 µM,> 10000 nM
same,IC50,second compound 0.1 µM,> 10000 nM
same,IC50,second compound 0.316 µM,> 10000 nM
same,IC50,second compound 1 µM,> 10000 nM
same,IC50,second compound 3.16 µM,< 31.6 nM
same,IC50,second compound 10 µM,< 31.6 nM
same,"viability, T/C",[1],95.5%
same,"viability, T/C",[2],84.1%
same,"viability, T/C",[3],88.9%
same,"viability, T/C",[4],81.2%
same,"viability, T/C",[5],76.9%
same,"viability, T/C",[6],82.5%
same,"viability, T/C",[7],79.7%
same,"viability, T/C",[8],70.8%
same,"viability, T/C",[9],85.2%
same,"viability, T/C",[10],74.1%
same,"viability, T/C",[11],85.9%
same,"viability, T/C",[12],74.1%
same,"viability, T/C",[13],72%
same,"viability, T/C",[14],79.2%
same,"viability, T/C",[15],69.8%
same,"viability, T/C",[16],78.4%
same,"viability, T/C",[17],74.7%
same,"viability, T/C",[18],69.7%
same,"viability, T/C",[19],58.6%
same,"viability, T/C",[20],62%
same,"viability, T/C",[21],61.9%
same,"viability, T/C",[22],54.9%
same,"viability, T/C",[23],61.3%
same,"viability, T/C",[24],50.8%
same,"viability, T/C",[25],40%
same,"viability, T/C",[26],48.6%
same,"viability, T/C",[27],43.2%
same,"viability, T/C",[28],42.5%
same,"viability, T/C",[29],42.4%
same,"viability, T/C",[30],42.9%
same,"viability, T/C",[31],35.2%
same,"viability, T/C",[32],39.6%
same,"viability, T/C",[33],35.2%
same,"viability, T/C",[34],30.6%
same,"viability, T/C",[35],23.4%
same,"viability, T/C",[36],12.6%
CNC(=O)c1ccc(N2C(=S)N(c3ccc(C#N)c(C(F)(F)F)c3)C(=O)C2(C)C)cc1F + Cc1nc(NC(=O)N2CCCC2C(N)=O)sc1-c1ccnc(C(C)(C)C(F)(F)F)c1,IC50,second compound 0.0316 µM,> 10000 nM
same,IC50,second compound 0.1 µM,> 10000 nM
same,IC50,second compound 0.316 µM,> 10000 nM
same,IC50,second compound 1 µM,> 10000 nM
same,IC50,second compound 3.16 µM,> 10000 nM
same,IC50,second compound 10 µM,< 31.6 nM
same,"viability, T/C",[1],99.5%
same,"viability, T/C",[2],93.2%
same,"viability, T/C",[3],103%
same,"viability, T/C",[4],91%
same,"viability, T/C",[5],94.7%
same,"viability, T/C",[6],84.8%
same,"viability, T/C",[7],87.3%
same,"viability, T/C",[8],75.7%
same,"viability, T/C",[9],80.8%
same,"viability, T/C",[10],86.5%
same,"viability, T/C",[11],99.1%
same,"viability, T/C",[12],82.1%
same,"viability, T/C",[13],68%
same,"viability, T/C",[14],72%
same,"viability, T/C",[15],82%
same,"viability, T/C",[16],83.5%
same,"viability, T/C",[17],74.1%
same,"viability, T/C",[18],66%
same,"viability, T/C",[19],63%
same,"viability, T/C",[20],61.8%
same,"viability, T/C",[21],51.7%
same,"viability, T/C",[22],68.3%
same,"viability, T/C",[23],60.8%
same,"viability, T/C",[24],54.5%
same,"viability, T/C",[25],45.1%
same,"viability, T/C",[26],55.9%
same,"viability, T/C",[27],49.5%
same,"viability, T/C",[28],49.2%
same,"viability, T/C",[29],54.3%
same,"viability, T/C",[30],46.1%
same,"viability, T/C",[31],27.4%
same,"viability, T/C",[32],36.2%
same,"viability, T/C",[33],33.9%
same,"viability, T/C",[34],35.4%
same,"viability, T/C",[35],40.3%
same,"viability, T/C",[36],35.8%
